# Source: PMC7617869, “Molecular glues that inhibit deubiquitylase activity and inflammatory signaling” (Nature Structural & Molecular Biology, 2025)
# “And” between values parts separate entries of the source, which are not always exact repeats. Equal entries are not always repeated.
# Assays:
# HsBRISCΔLoop = HsBRISCΔLoop (Homo sapiens, UniProt P46736+Q15018+Q9NXR7, DEL184-208); experiment: Mass photometry of HsBRISCΔLoop dimer formation; conditions: for Dimer fraction: HsBRISCΔLoop
# BRISC BRCC36 R167A = BRISC BRCC36 R167A (Homo sapiens, UniProt P46736+Q15018+Q9NXR7, R167A); experiment: BRISC mutant IQF assay: BRCC36 R167A; type: biochemical
# Method: (§1) IQF assays were performed in DUB reaction buffer containing 50 mM HEPES–NaOH pH 7.0, 100 mM NaCl, 0.1 mg ml^−1 BSA, 1 mM DTT and 0.03% v/v Brij-35. […] The final concentration of BRISC WT, all BRISC mutants, HsBRISCΔLoop, MmBRISC and DrBRISCΔNΔC was 1 nM. Other enzymes were tested at the following concentrations: 5 nM ARISC (FL), 10 nM CfBRISCΔNΔC, 250 nM AMSH* (ref. [43]), 500 nM USP2 and 1 μM trypsin (Sigma, 9002-07-7). For Michaelis–Menten experiments, 1 nM BRISC with 0–1 μM IQF K63-linked diubiquitin substrate was used. Michaelis–Menten analyses and Lineweaver–Burk plots were calculated using GraphPad Prism (version 9.0).
# (§2) To assess enzymatic activity, BRISC complexes were diluted to concentrations between 1 nM and 50 nM. […] Then, 20-μl enzyme reactions were carried out in 384-well black flat-bottom low-flange plates (Corning, 35373). DUB activity was measured using IQF K63-linked diubiquitin (LifeSensors, DU6303) at 50 nM. Cleaved diubiquitin was monitored by measuring fluorescence intensity (excitation, 544 nm; emission, 575 nm; dichroic mirror, 560 nm). Fluorescence intensity was measured every minute for 30 min at 30 °C. Fluorescence intensity units were plotted against time to generate a linear reaction progress curve, where the initial velocity (V0) corresponds to the gradient of the curve (typically achieved within 15 min). IC50 values were calculated using the GraphPad Prism (version 9.0) built-in dose–response equation for inhibitor concentration versus response (variable slope).
# DrBRISCΔNΔC = DrBRISCΔNΔC IQF DUB activity assay; type: biochemical, zebrafish (Danio rerio)
# Method: as §1, §2
# HsBRISCΔLoop (Δ184–208) = HsBRISCΔLoop (Δ184–208) (Homo sapiens, UniProt P46736+Q15018+Q9NXR7); experiment: HsBRISCΔLoop IQF DUB activity assay; type: biochemical
# Method: as §1, §2
# BRISC BRCC36 L169W = BRISC BRCC36 L169W (Homo sapiens, UniProt P46736+Q15018+Q9NXR7, L169W); experiment: BRISC mutant IQF assay: BRCC36 L169W; type: biochemical
# Method: as §1, §2
# [1] = FX-171-C 0.035 μM, read-out: Normalised V0
# [2] = FX-171-C 0.35 μM, read-out: Normalised V0
# [3] = FX-171-C 3.1 μM, read-out: Normalised V0
# [4] = FX-171-C 6.25 μM, read-out: Normalised V0
# [5] = FX-171-C 12.5 μM, read-out: Normalised V0
compound,measurement,setting,value
O=C(NC1C2CNCC21)c1nn(C(=O)c2c(Cl)cccc2Cl)cc1NC(=O)c1c(Cl)cccc1Cl (centres unmarked) [FX-171-C],Dimer fraction,HsBRISCΔLoop; [FX-171-C (μM)] 20,0
same,Dimer fraction,HsBRISCΔLoop; [FX-171-C (μM)] 40,0
same,Dimer fraction,HsBRISCΔLoop; [FX-171-C (μM)] 80,0
same,Dimer fraction,HsBRISCΔLoop; [FX-171-C (μM)] 156,0
same,Dimer fraction,HsBRISCΔLoop; [FX-171-C (μM)] 312.5,0
same,Dimer fraction,HsBRISCΔLoop; [FX-171-C (μM)] 2500,0.11 and 0.07
same,Dimer fraction,HsBRISCΔLoop; [FX-171-C (μM)] 5000,0.16 and 0.15 and 0.14
same,Dimer fraction,HsBRISCΔLoop; [FX-171-C (μM)] 10000,0.23 and 0.22 and 0.14
same,dimer formation of human BRISCΔLoop on inhibitor addition,HsBRISCΔLoop; mass photometry and negative-stain EM,fewer dimers
same,IC50,BRISC BRCC36 R167A,1400 nM
same,inhibitor sensitivity vs BRISC WT,BRISC BRCC36 R167A,remained inhibitor sensitive
same,remaining activity at 0.035 µM,BRISC BRCC36 R167A; [1],98.5%
same,remaining activity at 0.35 µM,BRISC BRCC36 R167A; [2],78.4%
same,remaining activity at 3.1 µM,BRISC BRCC36 R167A; [3],25.5%
same,remaining activity at 6.25 µM,BRISC BRCC36 R167A; [4],20.8%
same,remaining activity at 12.5 µM,BRISC BRCC36 R167A; [5],15%
same,remaining activity at 100 µM,"BRISC BRCC36 R167A; FX-171-C 100 μM, read-out: Normalised V0",4.9%
same,Normalised V0,DrBRISCΔNΔC; FX-171-C 0.013 μM,0.983 and 1.045 and 1.007 and 1.076 and 0.9046 and 1
same,Normalised V0,DrBRISCΔNΔC; FX-171-C 0.02 μM,0.9073 and 0.9513 and 0.9154
same,Normalised V0,DrBRISCΔNΔC; FX-171-C 0.0399999 μM,0.972 and 1.086 and 0.9939
same,Normalised V0,DrBRISCΔNΔC; FX-171-C 0.0599997 μM,1 and 1.042 and 0.951
same,Normalised V0,DrBRISCΔNΔC; FX-171-C 0.0799994 μM,1.257 and 1.072 and 1.014
same,Normalised V0,DrBRISCΔNΔC; FX-171-C 0.119998 μM,0.9667 and 1.1184 and 0.9769
same,Normalised V0,DrBRISCΔNΔC; FX-171-C 0.199996 μM,1.0445 and 1.023 and 0.9962
same,Normalised V0,DrBRISCΔNΔC; FX-171-C 0.499975 μM,0.9714 and 1.052 and 0.9507
same,Normalised V0,DrBRISCΔNΔC; FX-171-C 0.799937 μM,1.009 and 0.9333 and 0.8977
same,Normalised V0,DrBRISCΔNΔC; FX-171-C 1.25984 μM,0.9862 and 1.093 and 0.9451
same,Normalised V0,DrBRISCΔNΔC; FX-171-C 1.9996 μM,0.9182 and 0.9951 and 0.8213
same,Normalised V0,DrBRISCΔNΔC; FX-171-C 3.159 μM,1.042 and 0.9998 and 0.8593
same,Normalised V0,DrBRISCΔNΔC; FX-171-C 5.19739 μM,0.6448 and 0.9953 and 0.847
same,Normalised V0,DrBRISCΔNΔC; FX-171-C 7.99364 μM,0.9454 and 0.9127 and 0.9517
same,Normalised V0,DrBRISCΔNΔC; FX-171-C 12.7839 μM,0.9358 and 1.024 and 0.8831
same,Normalised V0,DrBRISCΔNΔC; FX-171-C 19.96 μM,0.6505 and 0.8985 and 0.8711
same,Normalised V0,DrBRISCΔNΔC; FX-171-C 31.4999 μM,0.752 and 0.7818 and 0.7739
same,Normalised V0,DrBRISCΔNΔC; FX-171-C 50.147 μM,0.6953 and 0.6278 and 0.7138
same,Normalised V0,DrBRISCΔNΔC; FX-171-C 79.7601 μM,0.6671 and 0.5066 and 0.3963
same,Normalised V0,DrBRISCΔNΔC; FX-171-C 125.99 μM,0.4739 and 0.3651 and 0.4262
same,Normalised V0,DrBRISCΔNΔC; FX-171-C 199.922 μM,0.313 and 0.2853 and 0.3043
same,remaining activity at 0.013 µM,"HsBRISCΔLoop (Δ184–208); HsBRISCΔLoop, FX-171-C 0.013 μM, read-out: Normalised V0",87.6%
same,remaining activity at 0.02 µM,"HsBRISCΔLoop (Δ184–208); HsBRISCΔLoop, FX-171-C 0.02 μM, read-out: Normalised V0",103%
same,remaining activity at 0.0399999 µM,"HsBRISCΔLoop (Δ184–208); HsBRISCΔLoop, FX-171-C 0.0399999 μM, read-out: Normalised V0",90.4%
same,remaining activity at 0.0599997 µM,"HsBRISCΔLoop (Δ184–208); HsBRISCΔLoop, FX-171-C 0.0599997 μM, read-out: Normalised V0",102%
same,remaining activity at 0.0799994 µM,"HsBRISCΔLoop (Δ184–208); HsBRISCΔLoop, FX-171-C 0.0799994 μM, read-out: Normalised V0",93.6%
same,remaining activity at 0.119998 µM,"HsBRISCΔLoop (Δ184–208); HsBRISCΔLoop, FX-171-C 0.119998 μM, read-out: Normalised V0",102%
same,remaining activity at 0.199996 µM,"HsBRISCΔLoop (Δ184–208); HsBRISCΔLoop, FX-171-C 0.199996 μM, read-out: Normalised V0",84.1%
same,remaining activity at 0.499975 µM,"HsBRISCΔLoop (Δ184–208); HsBRISCΔLoop, FX-171-C 0.499975 μM, read-out: Normalised V0",99%
same,remaining activity at 0.799937 µM,"HsBRISCΔLoop (Δ184–208); HsBRISCΔLoop, FX-171-C 0.799937 μM, read-out: Normalised V0",98.4%
same,remaining activity at 1.25984 µM,"HsBRISCΔLoop (Δ184–208); HsBRISCΔLoop, FX-171-C 1.25984 μM, read-out: Normalised V0",86.2%
same,remaining activity at 1.9996 µM,"HsBRISCΔLoop (Δ184–208); HsBRISCΔLoop, FX-171-C 1.9996 μM, read-out: Normalised V0",93.3%
same,remaining activity at 3.159 µM,"HsBRISCΔLoop (Δ184–208); HsBRISCΔLoop, FX-171-C 3.159 μM, read-out: Normalised V0",82%
same,remaining activity at 5.19739 µM,"HsBRISCΔLoop (Δ184–208); HsBRISCΔLoop, FX-171-C 5.19739 μM, read-out: Normalised V0",89%
same,remaining activity at 7.99364 µM,"HsBRISCΔLoop (Δ184–208); HsBRISCΔLoop, FX-171-C 7.99364 μM, read-out: Normalised V0",69.7%
same,remaining activity at 12.7839 µM,"HsBRISCΔLoop (Δ184–208); HsBRISCΔLoop, FX-171-C 12.7839 μM, read-out: Normalised V0",65.1%
same,remaining activity at 19.96 µM,"HsBRISCΔLoop (Δ184–208); HsBRISCΔLoop, FX-171-C 19.96 μM, read-out: Normalised V0",50.7%
same,remaining activity at 31.4999 µM,"HsBRISCΔLoop (Δ184–208); HsBRISCΔLoop, FX-171-C 31.4999 μM, read-out: Normalised V0",45.4%
same,remaining activity at 50.147 µM,"HsBRISCΔLoop (Δ184–208); HsBRISCΔLoop, FX-171-C 50.147 μM, read-out: Normalised V0",24.3%
same,remaining activity at 79.7601 µM,"HsBRISCΔLoop (Δ184–208); HsBRISCΔLoop, FX-171-C 79.7601 μM, read-out: Normalised V0",18.2%
same,change of inhibitor sensitivity on deletion of BRCC36 loop (184–208),HsBRISCΔLoop (Δ184–208); vs human BRISC,reduced inhibitor sensitivity approximately tenfold
same,IC50,BRISC BRCC36 L169W,91 µM
same,reduction of inhibition over wild-type complex,BRISC BRCC36 L169W,> 100 fold
same,remaining activity at 0.0035 µM,"BRISC BRCC36 L169W; FX-171-C 0.0035 μM, read-out: Normalised V0",94%
same,remaining activity at 0.035 µM,BRISC BRCC36 L169W; [1],91.9%
same,remaining activity at 0.35 µM,BRISC BRCC36 L169W; [2],94%
same,remaining activity at 3.1 µM,BRISC BRCC36 L169W; [3],93.5%
same,remaining activity at 6.25 µM,BRISC BRCC36 L169W; [4],90.3%
same,remaining activity at 12.5 µM,BRISC BRCC36 L169W; [5],89.8%
same,remaining activity at 25 µM,"BRISC BRCC36 L169W; FX-171-C 25 μM, read-out: Normalised V0",93.8%
same,remaining activity at 50 µM,"BRISC BRCC36 L169W; FX-171-C 50 μM, read-out: Normalised V0",84.8%
